The compounds below were run against T1, progesterone receptor (Homo sapiens, UniProt P06401) (assay: PR Human Progesterone NHR Binding (Agonist Radioligand) Assay, [3H]progesterone, T47D cytosolic fractions). Details: 0.5 nM [3H]progesterone, 1 hour at 4° C.
T1 sequence (P06401 679-933 limits assumed): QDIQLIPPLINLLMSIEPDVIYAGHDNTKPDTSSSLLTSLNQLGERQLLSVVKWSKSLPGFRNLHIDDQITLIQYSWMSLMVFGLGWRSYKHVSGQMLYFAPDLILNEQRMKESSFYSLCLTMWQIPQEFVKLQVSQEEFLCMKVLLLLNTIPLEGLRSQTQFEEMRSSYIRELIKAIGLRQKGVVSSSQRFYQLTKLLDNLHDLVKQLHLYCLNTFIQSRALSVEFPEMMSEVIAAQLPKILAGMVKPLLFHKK
Description: Exemplary compounds were tested for ability to bind to the progesterone receptor.
Compounds were tested using the PR Human Progesterone NHR Binding (Agonist Radioligand) Assay, Cerep at Eurofins Discovery using a modified version of the protocol from Sarup et al. (Cancer Res 1988; 48:5071-5078). Briefly, cytosolic fractions of T47D cells were incubated with 0.5 nM [^3H]progesterone for 1 hour at 4° C. in the absence or presence of the test compound. Nonspecific binding was determined in the presence of […] promegestone. Reactions were subjected to scintillation counting. Results are expressed as a percent inhibition of the control radioligand specific binding.

Ki, < 50 nM:
Cn1cc(-c2cc(C(C)(C)O)ccc2Oc2ccc(N3CC(CC4CCN(c5ncc(C(=O)N[C@H]6C(C)(C)[C@H](Oc7ccc(C#N)c(Cl)c7)C6(C)C)cn5)CC4)C3)cc2)c2cc[nH]c2c1=O [Compound I-232], CCS(=O)(=O)c1ccc(Oc2cccc(OCCOC3CCN(c4ccc(C(=O)N[C@H]5C(C)(C)[C@H](Oc6ccc(C#N)c(Cl)c6)C5(C)C)cn4)CC3)c2F)c(-c2cn(C)c(=O)c3[nH]ccc23)c1 [Compound I-185], CCS(=O)(=O)Nc1ccc(Oc2cccc(CCOC3CCN(c4ncc(C(=O)N[C@H]5C(C)(C)[C@H](Oc6ccc(C#N)c(Cl)c6)C5(C)C)cn4)CC3)c2)c(-c2cn(C)c(=O)c3[nH]ccc23)c1 [Compound I-19]
